Reference: patent publication US6914045B2, “Glycopeptide antibiotics” (Wyeth Holdings Corporation, priority 2001, dated 2005)
In brackets after ≈: the same amount, converted by molar mass.

Tests used:
Assay in all cases: in vitro antibacterial evaluation, MIC by broth dilution
Format in all cases: cell-based
Enterococcus sp. = conditions: broth dilution, 18 hours at 35° C.
Summary of the method: (§1)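 Broth dilution per NCCLS standard M7-A2 in Muller-Hinton II […], with an inoculum of 5×10^5 CFU/mL and antibiotic spanning 64-0.06 μg/mL. The MIC is the lowest concentration that inhibits growth of the organism.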

Escherichia coli = test system: Escherichia coli
Summary of the method: as §1

Staphylococcus sp. = conditions: broth dilution, 18 hours at 35° C.; for MIC Staphylococcus aureus (GC 1131): strain GC 1131
Summary of the method: as §1

Streptococcus sp. = conditions: broth dilution, 18 hours at 35° C.
Summary of the method: as §1

Compound: CC(c1ccccc1)C1NC(=O)CNC(=O)C(CO)NC(=O)C(C(O)C2CNC(=N)N2C2OC(CO)C(O)C(O)C2O)NC(=O)C(C(O)C2CNC(=N)N2)NC(=O)C(Cc2ccc(OC3OC(CO)C(OC4OC5COC(c6ccc7ccccc7c6)OC5C(O)C4O)C(O)C3O)cc2)NC1=O (stereo not drawn) [Example 145]
- MIC Enterococcus avium (GC 4558) (Enterococcus sp.; Enterococcus avium (GC 4558)): 1 µg/mL (≈ 0.698 µM)
- MIC Enterococcus faecalis (ATCC 29212) (Enterococcus sp.; Enterococcus faecalis (ATCC 29212)): 1 µg/mL (≈ 0.698 µM)
- MIC Enterococcus faecalis (GC 2242) (Enterococcus sp.; Enterococcus faecalis (GC 2242)): <0.5 µg/mL
- MIC Enterococcus faecalis (GC 2691) (Enterococcus sp.; Enterococcus faecalis (GC 2691)): 1 µg/mL (≈ 0.698 µM)
- MIC Enterococcus faecalis (GC 3059) (Enterococcus sp.; Enterococcus faecalis (GC 3059)): 1 µg/mL (≈ 0.698 µM)
- MIC Enterococcus faecalis (GC 4552) (Enterococcus sp.; Enterococcus faecalis (GC 4552)): 1 µg/mL (≈ 0.698 µM)
- MIC Enterococcus faecalis (GC 4553) (Enterococcus sp.; Enterococcus faecalis (GC 4553)): 2 µg/mL (≈ 1.4 µM)
- MIC Enterococcus faecalis (GC 4554) (Enterococcus sp.; Enterococcus faecalis (GC 4554)): 1 µg/mL (≈ 0.698 µM)
- MIC Enterococcus faecalis (GC 6189) (Enterococcus sp.; Enterococcus faecalis (GC 6189)): 1 µg/mL (≈ 0.698 µM)
- MIC Enterococcus faecium (GC 2243) (Enterococcus sp.; Enterococcus faecium (GC 2243)): 1 µg/mL (≈ 0.698 µM)
- MIC Enterococcus faecium (GC 4556) (Enterococcus sp.; Enterococcus faecium (GC 4556)): 1 µg/mL (≈ 0.698 µM)
- MIC Enterococcus faecium (GC 4557) (Enterococcus sp.; Enterococcus faecium (GC 4557)): 1 µg/mL (≈ 0.698 µM)
- MIC Enterococcus faecalis (ATCC 29212) (Enterococcus sp.; strain ATCC 29212): 1 µg/mL (≈ 0.698 µM)
- MIC Enterococcus faecalis (GC 2242) (Enterococcus sp.; strain GC 2242): <0.5 µg/mL
- MIC Enterococcus faecium (GC 2243) (Enterococcus sp.; strain GC 2243): 1 µg/mL (≈ 0.698 µM)
- MIC Enterococcus faecalis (GC 2691) (Enterococcus sp.; strain GC 2691): 1 µg/mL (≈ 0.698 µM)
- MIC Enterococcus faecalis (GC 3059) (Enterococcus sp.; strain GC 3059): 1 µg/mL (≈ 0.698 µM)
- MIC Enterococcus faecalis (GC 4552) (Enterococcus sp.; strain GC 4552): 1 µg/mL (≈ 0.698 µM)
- MIC Enterococcus faecalis (GC 4553) (Enterococcus sp.; strain GC 4553): 2 µg/mL (≈ 1.4 µM)
- MIC Enterococcus faecalis (GC 4554) (Enterococcus sp.; strain GC 4554): 1 µg/mL (≈ 0.698 µM)
- MIC Enterococcus faecium (GC 4556) (Enterococcus sp.; strain GC 4556): 1 µg/mL (≈ 0.698 µM)
- MIC Enterococcus faecium (GC 4557) (Enterococcus sp.; strain GC 4557): 1 µg/mL (≈ 0.698 µM)
- MIC Enterococcus avium (GC 4558) (Enterococcus sp.; strain GC 4558): 1 µg/mL (≈ 0.698 µM)
- MIC Enterococcus faecalis (GC 6189) (Enterococcus sp.; strain GC 6189): 1 µg/mL (≈ 0.698 µM)
- MIC Escherichia coli (ATCC 25922) (Escherichia coli; strain ATCC 25922, 18 hours at 35° C.): 64 µg/mL (≈ 44.6 µM)
- MIC Escherichia coli (GC 4559) (Escherichia coli; strain GC 4559, 18 hours at 35° C.): 32 µg/mL (≈ 22.3 µM)
- MIC Escherichia coli (GC 4560) (Escherichia coli; strain GC 4560, 18 hours at 35° C.): <0.5 µg/mL
- MIC Staphylococcus aureus (GC 1131) (Staphylococcus sp.; inoculum 5×10^5 CFU/mL): <0.5 µg/mL
- MIC Staphylococcus aureus (ATCC 29213) (Staphylococcus sp.; strain ATCC 29213): 1 µg/mL (≈ 0.698 µM)
- MIC Staphylococcus aureus (GC 1131) (Staphylococcus sp.): <0.5 µg/mL
- MIC Staphylococcus aureus (GC 3051) (Staphylococcus sp.; strain GC 3051): 1 µg/mL (≈ 0.698 µM)
- MIC Staphylococcus aureus (GC 3053) (Staphylococcus sp.; strain GC 3053): 1 µg/mL (≈ 0.698 µM)
- MIC Staphylococcus aureus (GC 4541) (Staphylococcus sp.; strain GC 4541): <0.5 µg/mL
- MIC Staphylococcus aureus (GC 4542) (Staphylococcus sp.; strain GC 4542): <0.5 µg/mL
- MIC Staphylococcus aureus-SMITH (GC 4543) (Staphylococcus sp.; strain GC 4543): <0.5 µg/mL
- MIC Staphylococcus aureus (GC 4544) (Staphylococcus sp.; strain GC 4544): 1 µg/mL (≈ 0.698 µM)
- MIC Staphylococcus aureus (GC 4545) (Staphylococcus sp.; strain GC 4545): 1 µg/mL (≈ 0.698 µM)
- MIC Staphylococcus haemolyticus (GC 4546) (Staphylococcus sp.; strain GC 4546): <0.5 µg/mL
- MIC Coagulase Negative Staphylococcus (GC 4547) (Staphylococcus sp.; strain GC 4547): 1 µg/mL (≈ 0.698 µM)
- MIC Coagulase Negative Staphylococcus (GC 4548) (Staphylococcus sp.; strain GC 4548): <0.5 µg/mL
- MIC Coagulase Negative Staphylococcus (GC 4549) (Staphylococcus sp.; strain GC 4549): 1 µg/mL (≈ 0.698 µM)
- MIC Coagulase Negative Staphylococcus (GC 4551) (Staphylococcus sp.; strain GC 4551): <0.5 µg/mL
- MIC Coagulase Negative Staphylococcus (GC 6257) (Staphylococcus sp.; strain GC 6257): 0.5 µg/mL (≈ 0.349 µM)
- MIC Staphylococcus aureus-SMITH (GC 4543) (Staphylococcus sp.; strain SMITH GC 4543): <0.5 µg/mL
- MIC Streptococcus agalactiae (GC 4564) (Streptococcus sp.; Streptococcus agalactiae (GC 4564)): <0.5 µg/mL
- MIC Streptococcus pneumoniae (ATCC 6301) (Streptococcus sp.; Streptococcus pneumoniae (ATCC 6301)): <0.5 µg/mL
- MIC Streptococcus pneumoniae (GC 1894) (Streptococcus sp.; Streptococcus pneumoniae (GC 1894)): <0.5 µg/mL
- MIC Streptococcus pneumoniae (GC 4565) (Streptococcus sp.; Streptococcus pneumoniae (GC 4565)): <0.5 µg/mL
- MIC Streptococcus pyogenes (GC 4563) (Streptococcus sp.; Streptococcus pyogenes (GC 4563)): 1 µg/mL (≈ 0.698 µM)
- MIC Streptococcus pneumoniae (ATCC 6301) (Streptococcus sp.; strain ATCC 6301): <0.5 µg/mL
- MIC Streptococcus pneumoniae (GC 1894) (Streptococcus sp.; strain GC 1894): <0.5 µg/mL
- MIC Streptococcus pyogenes (GC 4563) (Streptococcus sp.; strain GC 4563): 1 µg/mL (≈ 0.698 µM)
- MIC Streptococcus agalactiae (GC 4564) (Streptococcus sp.; strain GC 4564): <0.5 µg/mL
- MIC Streptococcus pneumoniae (GC 4565) (Streptococcus sp.; strain GC 4565): <0.5 µg/mL
